Assay results as given in patent US20090118332A1, “Therapeutic Agents - 551” (AstraZeneca AB, priority 2006, published 2009).

Molecular target: T1, human Fatty Acid Synthase (Homo sapiens, UniProt P49327)
T1 construct: made in house
Assay: Human FAS enzyme assay (decrease in NADPH fluorescence)
Format: biochemical
Settings: for inhibition at 100 µM: % inhibition at a concentration of 100 μmolar; for IC50, inhibition of human Fatty Acid Synthase: FAS enzyme assay, IC50 from fitted sigmoid curves
Protocol: Human and Rat FAS Enzyme Assay.
Fatty acid synthase is an enzyme complex that harbours seven enzymatic activities catalysing the reductive synthesis of long chain fatty acids from acetyl CoA and malonyl CoA to palmitate. When acetyl CoA and malonyl CoA are forming palmitate NADPH is consumed forming NADP. Since NADPH is fluorescent but not NADP the reaction can be measured by analysing the decrease in fluorescence.
Compounds were added to a black 384 well plate (Matrix) in a volume of 5 μl consisting of 20% DMSO and 80% Tris buffer pH 7.5, at a top concentration of 1 mM. NADPH, 30 μl of 166.6 μM, formulated in assay buffer (0.1M Tris ph7.5, 0.1 mM EDTA, 1 mM glutathione, 0.05% BSA), was then added to all of the wells of the plate. Fatty acid synthase Human or rat enzyme (0.4 μg, produced in house), dissolved in 20 mM Tris/HCl pH 7.5, 5 mM BOG, 1 mM TCEP, 10% glycerol, 1 mM EDTA, 150 mM NaCl, was then added to the plate in a volume of 10 μl. Enzyme was added to all but the last two columns of the plate, to which, 10 μl of assay buffer was added (0.1M Tris ph7.5, 0.1 mM EDTA, 1 mM glutathione, 0.05% BSA) to provide a no enzyme assay control. Following a 15-minute incubation period, at room temperature, the plates were read on an Envision plate reader using 340 nm excitation and 460 nm emission filters. This served as a time zero background read. Substrates (an equal mix of both malonyl and acetyl CoA) were then added to the plates in a total volume of 5 μl. The concentrations of malonyl and acetyl CoA in the mixture were 500 μM and 150 μM respectively. Both were prepared as 10 mM stock solutions in distilled water and were subsequently diluted to working concentrations in assay buffer. Plates were then incubated for a further 60 minutes, at room temperature, before being read again on the Envision reader using the same parameters as previously used. The data was analysed by subtracting the background time zero data from that generated following the final 60 minute incubate and the percent inhibition compared to the maximum and minimum assay controls was determined. Sigmoid curves were fitted using Origin 7.5 Client software and IC50 values were determined.

T1 sequence (P49327 whole entry): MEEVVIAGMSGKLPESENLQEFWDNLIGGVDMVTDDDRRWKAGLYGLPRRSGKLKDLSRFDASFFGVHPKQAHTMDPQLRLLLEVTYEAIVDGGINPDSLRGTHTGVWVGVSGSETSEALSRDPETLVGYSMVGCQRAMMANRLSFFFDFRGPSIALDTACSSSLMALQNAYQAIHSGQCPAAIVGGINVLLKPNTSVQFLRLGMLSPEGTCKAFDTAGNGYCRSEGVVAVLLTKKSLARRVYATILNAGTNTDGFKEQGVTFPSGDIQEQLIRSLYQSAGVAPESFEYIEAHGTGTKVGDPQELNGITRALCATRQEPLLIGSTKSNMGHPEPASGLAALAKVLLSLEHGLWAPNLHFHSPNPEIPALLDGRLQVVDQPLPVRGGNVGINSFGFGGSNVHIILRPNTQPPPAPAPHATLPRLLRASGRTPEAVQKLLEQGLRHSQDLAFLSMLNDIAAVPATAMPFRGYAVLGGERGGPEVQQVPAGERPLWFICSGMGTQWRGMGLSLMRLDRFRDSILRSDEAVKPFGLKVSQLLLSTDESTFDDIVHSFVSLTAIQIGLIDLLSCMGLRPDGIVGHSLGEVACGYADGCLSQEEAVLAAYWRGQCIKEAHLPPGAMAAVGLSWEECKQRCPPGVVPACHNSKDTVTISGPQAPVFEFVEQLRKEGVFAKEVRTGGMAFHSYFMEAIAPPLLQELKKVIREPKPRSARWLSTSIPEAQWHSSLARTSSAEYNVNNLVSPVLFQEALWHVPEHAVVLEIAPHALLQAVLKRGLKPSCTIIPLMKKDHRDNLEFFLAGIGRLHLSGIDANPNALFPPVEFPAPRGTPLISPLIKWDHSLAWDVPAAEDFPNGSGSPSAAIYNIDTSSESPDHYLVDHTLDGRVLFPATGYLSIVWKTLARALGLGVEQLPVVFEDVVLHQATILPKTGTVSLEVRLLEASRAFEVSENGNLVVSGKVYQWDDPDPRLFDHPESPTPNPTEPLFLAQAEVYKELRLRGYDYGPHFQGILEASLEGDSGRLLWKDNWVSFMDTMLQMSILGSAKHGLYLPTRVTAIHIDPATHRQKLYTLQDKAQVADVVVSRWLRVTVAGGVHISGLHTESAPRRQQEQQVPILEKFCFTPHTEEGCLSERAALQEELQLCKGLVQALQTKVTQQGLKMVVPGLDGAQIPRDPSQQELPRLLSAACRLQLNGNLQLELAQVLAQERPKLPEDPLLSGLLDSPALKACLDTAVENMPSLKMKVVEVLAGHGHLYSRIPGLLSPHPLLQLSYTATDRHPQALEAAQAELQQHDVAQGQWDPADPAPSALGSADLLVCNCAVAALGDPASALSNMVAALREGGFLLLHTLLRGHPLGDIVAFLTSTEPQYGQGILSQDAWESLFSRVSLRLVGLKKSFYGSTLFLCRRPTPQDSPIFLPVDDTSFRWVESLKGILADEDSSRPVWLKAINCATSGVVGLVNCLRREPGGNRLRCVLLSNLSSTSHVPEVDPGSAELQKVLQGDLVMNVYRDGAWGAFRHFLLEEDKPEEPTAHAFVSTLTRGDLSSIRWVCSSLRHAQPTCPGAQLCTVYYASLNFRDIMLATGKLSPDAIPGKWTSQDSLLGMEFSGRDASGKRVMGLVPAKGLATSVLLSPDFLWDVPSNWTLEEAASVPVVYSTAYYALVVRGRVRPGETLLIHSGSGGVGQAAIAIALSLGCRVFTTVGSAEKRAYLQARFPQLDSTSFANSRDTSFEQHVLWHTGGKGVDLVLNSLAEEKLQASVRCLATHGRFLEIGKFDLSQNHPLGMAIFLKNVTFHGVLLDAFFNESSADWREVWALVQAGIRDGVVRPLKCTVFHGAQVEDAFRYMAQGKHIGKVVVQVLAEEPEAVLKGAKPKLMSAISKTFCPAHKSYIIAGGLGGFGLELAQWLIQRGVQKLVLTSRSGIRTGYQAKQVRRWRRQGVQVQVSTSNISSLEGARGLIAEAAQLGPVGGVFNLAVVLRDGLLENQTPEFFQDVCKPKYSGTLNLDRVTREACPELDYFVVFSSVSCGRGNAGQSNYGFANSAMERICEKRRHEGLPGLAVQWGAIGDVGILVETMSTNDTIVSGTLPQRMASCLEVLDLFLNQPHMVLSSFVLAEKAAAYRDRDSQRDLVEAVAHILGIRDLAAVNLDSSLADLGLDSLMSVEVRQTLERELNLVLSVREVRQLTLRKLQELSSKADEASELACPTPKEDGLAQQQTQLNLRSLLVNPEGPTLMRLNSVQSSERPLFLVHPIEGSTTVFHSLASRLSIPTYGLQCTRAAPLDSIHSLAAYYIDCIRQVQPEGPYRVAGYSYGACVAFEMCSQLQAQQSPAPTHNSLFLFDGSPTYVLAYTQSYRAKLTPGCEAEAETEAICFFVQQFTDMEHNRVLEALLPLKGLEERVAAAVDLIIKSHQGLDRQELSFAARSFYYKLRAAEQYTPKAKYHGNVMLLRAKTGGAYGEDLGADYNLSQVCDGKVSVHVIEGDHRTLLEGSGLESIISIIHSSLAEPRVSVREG

| SMILES | inhibition at 100 µM | IC50, inhibition of human Fatty Acid Synthase |
| --- | --- | --- |
| Cc1ccc(C(=O)N2CCC(c3ccc(C#N)cc3)CC2)cc1NC(=O)NC(C)Cc1c[nH]c2ccccc12 (racemic) [Example 70, (RS)-1-[5-[4-(4-cyanophenyl)piperidine-1-carbonyl]-2-methyl-phenyl]-3-[1-(1H-indol-3-yl)propan-2-yl]urea] | 87.7% | – |
| Cc1ccc(C(=O)N2CCC(c3ccc(C#N)cc3)CC2)cc1NC(=O)NC1CCCCC1O (racemic) [Example 187, (RS) 1-[5-[4-(4-cyanophenyl)piperidine-1-carbonyl]-2-methyl-phenyl]-3-(2-hydroxycyclohexyl)urea] | 90.4% | – |
| Cc1ccc(C(=O)N2CCC(c3ccc(C#N)cc3)CC2)cc1NC(=O)NCC(O)C(F)(F)F (racemic) [Example 195, (RS)-1-[5-[4-(4-cyanophenyl)piperidine-1-carbonyl]-2-methyl-phenyl]-3-(3,3,3-trifluoro-2-hydroxy-propyl)urea] | 88.6% | – |
| Cc1ccc(C(=O)N2CCC(c3ccc(C#N)cc3)CC2)cc1NC(=O)NC1CCCNC1=O (racemic) [Example 236, (RS)-1-[5-[4-(4-cyanophenyl)piperidine-1-carbonyl]-2-methyl-phenyl]-3-(2-oxo-3-piperidyl)urea] | 77.1% | – |
| Cc1ccc(C(=O)N2CCC(c3ccc(C#N)cc3)CC2)cc1NC(=O)NC1Cc2cccnc2NC1=O (racemic) [Example 239, (RS)-1-[5-[4-(4-cyanophenyl)piperidine-1-carbonyl]-2-methyl-phenyl]-3-(2-oxo-3,4-dihydro-1H-1,8-naphthyridin-3-yl)urea] | 86.5% | – |
| Cc1ccc(C(=O)N2CCC(c3ccc(C#N)cc3)CC2)cc1NC(=O)NC(C)COc1ccccc1 (racemic) [Example 253, (RS)-1-[5-[4-(4-cyanophenyl)piperidine-1-carbonyl]-2-methyl-phenyl]-3-(1-phenoxypropan-2-yl)urea] | 90.9% | – |
| Cc1ccc(C(=O)N2CCC(c3ccc(C#N)cc3)CC2)cc1NC(=O)NC1CCCN(C)C1 (racemic) [Example 255, (RS)-1-[5-[4-(4-cyanophenyl)piperidine-1-carbonyl]-2-methyl-phenyl]-3-(1-methyl-3-piperidyl)urea] | 102% | – |
| CCc1ccc(C(=O)N2CCC(c3ccc(C#N)cc3)CC2)cc1NC(=O)NCC1COCCO1 (racemic) [Example 259, (RS)-1-[5-[4-(4-cyanophenyl)piperidine-1-carbonyl]-2-ethyl-phenyl]-3-(1,4-dioxan-2-ylmethyl)urea] | 102% | – |
| Cc1ccc(C(=O)N2CCC(c3ccc(C#N)cc3)CC2)cc1NC(=O)N[C@H]1CCCC[C@H]1N (relative stereo) [Example 304, 3-[(cis)-2-aminocyclohexyl]-1-[5-[4-(4-cyanophenyl)piperidine-1-carbonyl]-2-methyl-phenyl]urea] | 92.8% | – |
| Cc1ccc(C(=O)N2CCC(c3ccc(C#N)cc3)CC2)cc1NC(=O)N[C@@H]1CCCC[C@H]1N (relative stereo) [Example 305, 3-[(trans)-2-aminocyclohexyl]-1-[5-[4-(4-cyanophenyl)piperidine-1-carbonyl]-2-methyl-phenyl]urea] | 78.8% | – |
| Cc1ccc(C(=O)N2CCC(c3ccc(C#N)cc3)CC2)cc1NC(=O)N[C@H]1CCCC[C@H]1NS(C)(=O)=O (relative stereo) [Example 307, 1-[5-[4-(4-cyanophenyl)piperidine-1-carbonyl]-2-methyl-phenyl]-3-[(cis)-2-methanesulfonamidocyclohexyl]urea] | 96.1% | – |
| CC(=O)N[C@@H]1CCCC[C@@H]1NC(=O)Nc1cc(C(=O)N2CCC(c3ccc(C#N)cc3)CC2)ccc1C (relative stereo) [Example 308, N-[(cis)-2-[[5-[4-(4-cyanophenyl)piperidine-1-carbonyl]-2-methyl-phenyl]carbamoylamino]cyclohexyl]acetamide] | 91.5% | – |
| CCS(=O)(=O)N[C@@H]1CCCC[C@@H]1NC(=O)Nc1cc(C(=O)N2CCC(c3ccc(C#N)cc3)CC2)ccc1C (relative stereo) [Example 309, 3-[5-[4-(4-cyanophenyl)piperidine-1-carbonyl]-2-methyl-phenyl]-1-[(cis)-2-(ethylsulfonylamino)cyclohexyl]urea] | 96.7% | – |
| Cc1ccc(C(=O)N2CCC(c3ccc(C#N)cc3)CC2)cc1NC(=O)N[C@H]1CCCC[C@@H]1NS(C)(=O)=O (relative stereo) [Example 315, 1-[5-[4-(4-cyanophenyl)piperidine-1-carbonyl]-2-methyl-phenyl]-3-[(trans)-2-methanesulfonamidocyclohexyl]urea] | 104% | – |
| Cc1ccc(C(=O)N2CCC(c3ccc(C#N)cc3)CC2)cc1NC(=O)N[C@@H]1CCCC[C@@H]1NS(=O)(=O)N(C)C (relative stereo) [Example 317, 1-[5-[4-(4-cyanophenyl)piperidine-1-carbonyl]-2-methyl-phenyl]-3-[(cis)-2-(dimethylsulfamoylamino)cyclohexyl]urea] | 94.9% | – |
| Cc1ccc(C(=O)N2CCC(c3ccc(C#N)cc3)CC2)cc1NC(=O)N[C@@H]1CCCC[C@H]1NS(=O)(=O)N(C)C (relative stereo) [Example 319, 1-[5-[4-(4-cyanophenyl)piperidine-1-carbonyl]-2-methyl-phenyl]-3-[(trans)-2-(dimethylsulfamoylamino)cyclohexyl]urea] | 84.3% | – |
| CC(=O)N[C@@H]1CCCC[C@H]1NC(=O)Nc1cc(C(=O)N2CCC(c3ccc(C#N)cc3)CC2)ccc1C (relative stereo) [N-[(trans)-2-[[5-[4-(4-cyanophenyl)piperidine-1-carbonyl]-2-methylphenyl]carbamoylamino]cyclohexyl]acetamide] | – | do not have IC50s in the range of about 0.001 μM to about 30 μM |
| Cc1ccc(C(=O)N2CCC(c3ccc(C#N)cc3)CC2)cc1NC(=O)NC1CN2CCC1CC2 (stereo in doubt) [Example 270, 3-[(8S)-1-azabicyclo[2.2.2]oct-8-yl]-1-[5-[4-(4-cyanophenyl)piperidine-1-carbonyl]-2-methyl-phenyl]urea] | 89.4% | – |
| Cc1ccc(C(=O)N2CCC(O)(c3ccccc3)CC2)cc1NC(=O)NC(C)C [1-[5-(4-hydroxy-4-phenylpiperidine-1-carbonyl)-2-methylphenyl]-3-propan-2-ylurea] | – | do not have IC50s in the range of about 0.001 μM to about 30 μM |
| Cc1ccc(C(=O)N2CCC(c3ccccc3C#N)CC2)cc1NC(=O)NC(C)C [1-[5-[4-(2-cyanophenyl)piperidine-1-carbonyl]-2-methylphenyl]-3-propan-2-ylurea] | – | do not have IC50s in the range of about 0.001 μM to about 30 μM |
| Cc1ccc(C(=O)N2CCC(O)(c3ccccc3F)CC2)cc1NC(=O)NC(C)C [1-[5-[4-(2-fluorophenyl)-4-hydroxypiperidine-1-carbonyl]-2-methylphenyl]-3-propan-2-ylurea] | – | do not have IC50s in the range of about 0.001 μM to about 30 μM |
| COc1ccccc1C1CCN(C(=O)c2ccc(C)c(NC(=O)NC(C)C)c2)CC1 [1-[5-[4-(2-methoxyphenyl)piperidine-1-carbonyl]-2-methylphenyl]-3-propan-2-ylurea] | – | do not have IC50s in the range of about 0.001 μM to about 30 μM |
| Cc1ccc(C(=O)N2CCC(c3cccc(Cl)c3)CC2)cc1NC(=O)NC(C)C [1-[5-[4-(3-chlorophenyl)piperidine-1-carbonyl]-2-methylphenyl]-3-propan-2-ylurea] | – | do not have IC50s in the range of about 0.001 μM to about 30 μM |
| Cc1ccc(C(=O)N2CCC(c3cccc(F)c3)CC2)cc1NC(=O)NC(C)C [1-[5-[4-(3-fluorophenyl)piperidine-1-carbonyl]-2-methylphenyl]-3-propan-2-ylurea] | – | do not have IC50s in the range of about 0.001 μM to about 30 μM |
| COc1cccc(C2CCN(C(=O)c3ccc(C)c(NC(=O)NC(C)C)c3)CC2)c1 [1-[5-[4-(3-methoxyphenyl)piperidine-1-carbonyl]-2-methylphenyl]-3-propan-2-ylurea] | – | do not have IC50s in the range of about 0.001 μM to about 30 μM |
| Cc1ccc(C(=O)N2CCC(O)(c3cccc(C(F)(F)F)c3)CC2)cc1NC(=O)NC(C)C [1-[5-[4-hydroxy-4-[3-(trifluoromethyl)phenyl]piperidine-1-carbonyl]-2-methylphenyl]-3-propan-2-ylurea] | – | do not have IC50s in the range of about 0.001 μM to about 30 μM |
| COc1ccc(NC(=O)NC(C)C)cc1C(=O)N1CCC(c2ccc(C#N)cc2)CC1 [3-[3-[4-(4-cyanophenyl)piperidine-1-carbonyl]-4-methoxyphenyl]-1-propan-2-ylurea] | – | do not have IC50s in the range of about 0.001 μM to about 30 μM |
